Results: US20110189174A1, “COMPOSITIONS AND METHODS FOR TREATING, REDUCING, AMELIORATING, ALLEVIATING, OR INHIBITING PROGRESSION OF, PATHOGENIC OCULAR NEOVASCULARIZATION” (priority 2010, published 2011)

Experiments:
[1] = Clinical ophthalmic examination in monkeys (vitreal cell scores, anterior chamber inflammation); assay type: in vivo, cynomolgus monkeys (Macaca fascicularis); settings: for Vitreal cell score: number of eyes with grade 0 / Vitreal cell score: number of eyes with grade 1 / Vitreal cell score: number of eyes with grade 2 / Vitreal cell score: number of eyes with grade 3 / Vitreal cell score: number of eyes with grade 4 / Vitreal cell score: number of eyes with grade Trace: intravitreal days 1 and 15, cells not distinguishable from dispersed drug
Experimental: Once the phase Ib study was completed, and it was established that the drug suspension in oil would not interfere with either laser administration, evaluation of CNV or cause adverse effects, phase II was initiated. On days 1, and 15 both eyes of monkeys received 50 μL of Lucentis (0.5 mg/eye), vehicle (0 mg/eye), BOL-303050-X (1.5 mg/eye), BOL-303054-X (1.5 mg/eye) or BOL-303055-X (1.5 mg/eye) (Table 2). Intravitreous injection was performed for each by eye aiming towards mid-vitreous body. Dosing in the right eye was alternated for successive doses (as applicable) at approximately the 11 o'clock and 10 o'clock positions. Dosing in the left eye was alternated for successive doses (as applicable) from approximately the 1 o'clock and 2 o'clock positions.
Animals were examined at baseline, on days 1, 3, 7, 15, and 31 of Dosing Phase II and on the day of scheduled sacrifice (day 38). On days of dose administration the ophthalmic examination was done prior to dosing.

[2] = test system: laser-induced CNV in rats; experiment: Laser-induced choroidal neovascularization in rats (CNV area, fluorescein angiography grades); assay type: in vivo, Brown Norway rats; settings: day 14, 200 μg/eye (echistatin 5 μg, Avastin 125 μg); for Number of lesions in FA grade 1 / Number of lesions in FA grade 2 / Number of lesions in FA grade 3 / Number of lesions in FA grade 4: unobstructed lesions; for CNV area / development of CNV on isolectin IB4-labeled flat mounts compared to vehicle-treated controls / Mean score of fluorescein leakage (FA score) compared to vehicle-treated controls: one intravitreal injection after laser
Experimental: Fifty six male Brown Norway rats, approximately 200-300 grams of body weight and two months of age, were used in this study. This study was performed in two cohorts and only one eye of each rat was used.
The pupils were dilated and then the rats were anesthetized as described in baseline examination. The rats were positioned in front of a slit lamp system (Haag-Streit USA, Mason, Ohio). […] A diode laser (OcuLight TX, IRIDEX, Mountain View, Calif.) was used for photocoagulation (532 nm wavelength, 120 mW power, 50 μm spot size and 0.05 seconds duration). For each right eye, a series of six photocoagulation sites were concentrically placed between the major retinal vessels at equal distance (about two optic discs) around the optic nerve head. […] If a significant retinal or subretinal hemorrhage occurred during the laser photocoagulation, then the left eye was be photocoagulated and used as the experimental eye.
Grade 1 lesions had no hyperfluorescence.
The eyes were collected on day 14 and immediately fixed in 4% paraformaldehyde in PBS (pH 7.4) for one and half hours, and then transferred into cold PBS and kept at 4° C. for further processing.
The incubation was performed in a humidified dark chamber with gentle rotation at 4° C. overnight. On the second day, the retinal pigment epithelium (RPE)-choroidsclera complexes were washed with cold IHC buffer, mounted with ProLong® Gold antifade reagent, covered with circular cover glass, and sealed with clear nail polish. Fluorescent images were collected with a confocal microscope (FluoView FV 1000 confocal microscope, Olympus, Center Valley, Pa.) and a 4×, 0.16 numerical aperture objective lens. […] The laser sites were identified by merging images of the green (phalloidin labeling RPE) and the red (isolectin IB4 labeling CNV) channels. CNV complexes were identified using the red channel (isolectin), and their areas were quantified using the FluoView software (Version 1.7a).
Average FA scores and areas of CNV complexes in each group were presented as mean±SEM, unless otherwise indicated. They were analyzed using a one-way ANOVA followed by a Tukey-Kramer test after Box-Cox transformations. All statistics were performed utilizing the statistical analysis software JMP (SAS Institute, Cary, N.C.). p values ≦0.05 were considered statistically significant.

[3] = test system: human retinal endothelial cells (HREC); experiment: Testing 4: VEGF-induced HREC proliferation (MTS assay), Avastin with or without BOL-303050-X; assay type: cell-based
Experimental: HREC were first cultured overnight in a 96-well plate coated with fibronectin. The next day, cells were serum-starved for 2 hours before treatment. […] The cells were then cultured at 37° C., 5% CO2, and 95% humidity for another 3 days.
A 96-well plate was coated with human fibronectin (10 μg/ml) at 37° C. for 5 h. HREC were collected from flasks by EDTA-trypsin treatment and re-suspended in 10% FBS CS-C medium at 18,000 cells/ml. Cells (200 μl/well) were added to the plate and cultured overnight at 37° C., 5% CO2, and 95% humidity. The next day, medium was aspirated and 200 μl/well serum-free medium was added for 2 h at 37° C., 5% CO2, and 95% humidity.
Normal IgG was added in such a way that all groups contained the same amount of IgG proteins. All medium solutions were incubated for 1 h at 37° C., 5% CO2, and 95% humidity. After carefully aspirating the medium from cells, 200 μl of the medium containing different agents were added into appropriate wells. The cells were further cultured for 3 days.
At the end of incubation, the medium was carefully aspirated from cells and 120 μl of MTS working solution was added into all wells including four blank wells (without cells). The plate was incubated at 37° C., 5% CO2, and 95% humidity for 1 hour and then read by a plate reader at 490 nm wavelength.
Median optical density (OD) was generated from different groups. Data were expressed as mean±SEM of the OD values. Statistical analysis was performed using two-way ANOVA followed by the contrast procedure after Box-Cox transformations if needed, and p<0.05 was considered statistically significant. […] All the data from the individual wells were fitted to a re-parameterized four-parameter logistic equation to obtain IC50 using similar methodology as that previously described and utilizing the statistical analysis software JMP (SAS Institute, Cary, N.C.).

Row | Compound | Vitreal cell score: number of eyes with grade 0 ([1]; Day 3) | Vitreal cell score: number of eyes with grade 1 ([1]; Day 3) | Vitreal cell score: number of eyes with grade 2 ([1]; Day 3) | Vitreal cell score: number of eyes with grade 3 ([1]; Day 3) | Vitreal cell score: number of eyes with grade 4 ([1]; Day 3) | Vitreal cell score: number of eyes with grade Trace ([1]; Day 3) | Vitreal cell score: number of eyes with grade 0 ([1]; Day 7) | Vitreal cell score: number of eyes with grade 1 ([1]; Day 7) | Vitreal cell score: number of eyes with grade 2 ([1]; Day 7) | Vitreal cell score: number of eyes with grade 3 ([1]; Day 7) | Vitreal cell score: number of eyes with grade 4 ([1]; Day 7) | Vitreal cell score: number of eyes with grade Trace ([1]; Day 7) | Vitreal cell score: number of eyes with grade 0 ([1]; Day 15) | Vitreal cell score: number of eyes with grade 1 ([1]; Day 15) | Vitreal cell score: number of eyes with grade 2 ([1]; Day 15) | Vitreal cell score: number of eyes with grade 3 ([1]; Day 15) | Vitreal cell score: number of eyes with grade 4 ([1]; Day 15) | Vitreal cell score: number of eyes with grade Trace ([1]; Day 15) | Number of lesions in FA grade 2 [2] | Number of lesions in FA grade 4 [2] | further results
1 | COc1c(NC[C@H](NC(=O)OCc2ccccc2)C(=O)O)ncnc1N1CCC(c2ccc3c(n2)NCCC3)CC1 [BOL-303054-X] | 9 | 1 | 1 | 0 | 0 | 5 | 2 | 2 | 2 | 4 | 6 | 2 | 0 | 6 | 2 | 0 | 8 | 0 | 0 | 1 | Vitreal cell score: number of eyes with grade 0 ([1]; Day 31): 0; Vitreal cell score: number of eyes with grade 1 ([1]; Day 31): 1; Vitreal cell score: number of eyes with grade 2 ([1]; Day 31): 8; Vitreal cell score: number of eyes with grade 3 ([1]; Day 31): 2; Vitreal cell score: number of eyes with grade 4 ([1]; Day 31): 6; Vitreal cell score: number of eyes with grade Trace ([1]; Day 31): 1; Vitreal cell score: number of eyes with grade 0 ([1]; Day 38): 0; Vitreal cell score: number of eyes with grade 1 ([1]; Day 38): 0; Vitreal cell score: number of eyes with grade 2 ([1]; Day 38): 3; Vitreal cell score: number of eyes with grade 3 ([1]; Day 38): 2; Vitreal cell score: number of eyes with grade 4 ([1]; Day 38): 13; Vitreal cell score: number of eyes with grade Trace ([1]; Day 38): 0; Anterior chamber inflammation ([1]; left eye of one monkey that developed endophthalmitis on day 29, until day 38): Moderate anterior chamber inflammation; Number of lesions in FA grade 1 [2]: 0; Number of lesions in FA grade 3 [2]: 5
2 | CCc1nc(NC[C@H](NC(=O)OCc2ccccc2)C(=O)O)c(C)c(N2CCC(c3ccc4c(n3)NCCC4)CC2)n1 [BOL-303055-X] | 11 | 1 | 0 | 0 | 0 | 6 | 0 | 3 | 6 | 3 | 1 | 5 | 0 | 7 | 3 | 1 | 3 | 4 | 3 | 1 | Vitreal cell score: number of eyes with grade 0 ([1]; Day 31): 5; Vitreal cell score: number of eyes with grade 1 ([1]; Day 31): 2; Vitreal cell score: number of eyes with grade 2 ([1]; Day 31): 4; Vitreal cell score: number of eyes with grade 3 ([1]; Day 31): 0; Vitreal cell score: number of eyes with grade 4 ([1]; Day 31): 0; Vitreal cell score: number of eyes with grade Trace ([1]; Day 31): 7; Vitreal cell score: number of eyes with grade 0 ([1]; Day 38): 6; Vitreal cell score: number of eyes with grade 1 ([1]; Day 38): 5; Vitreal cell score: number of eyes with grade 2 ([1]; Day 38): 0; Vitreal cell score: number of eyes with grade 3 ([1]; Day 38): 0; Vitreal cell score: number of eyes with grade 4 ([1]; Day 38): 0; Vitreal cell score: number of eyes with grade Trace ([1]; Day 38): 7; CNV area / development of CNV on isolectin IB4-labeled flat mounts compared to vehicle-treated controls [2]: smaller area of CNV; Mean score of fluorescein leakage (FA score) compared to vehicle-treated controls [2]: smaller means; Number of lesions in FA grade 1 [2]: 0; Number of lesions in FA grade 3 [2]: 2; Enhancement of Avastin potency ([3]; compound at 1 nM): approximately 6 fold; Enhancement of Avastin potency ([3]; compound at 10 nM): ~7 fold
3 | bevacizumab [Avastin, reference compound] | – | – | – | – | – | – | – | – | – | – | – | – | – | – | – | – | – | – | 7 | 15 | CNV area / development of CNV on isolectin IB4-labeled flat mounts compared to vehicle-treated controls [2]: did not inhibit the development of CNV; Mean score of fluorescein leakage (FA score) compared to vehicle-treated controls [2]: smaller means; Inhibition of VEGF-induced HREC proliferation by Avastin alone ([3]; 3-300 ng/ml, significant from 10 ng/ml): dose-dependent inhibition; IC50 of Avastin on VEGF-induced HREC proliferation ([3]; in the presence of BOL-303050-X 1 nM): 0.015 µg/mL; IC50 of Avastin on VEGF-induced HREC proliferation ([3]; in the presence of BOL-303050-X 10 nM): 0.013 µg/mL
